{"source": "patent US20220280526A1", "about": "“AGENT FOR THE TREATMENT OF PSORIASIS” (EBERHARD KARLS UNIVERSITAET TUEBINGEN MEDIZINISCHE FAKULTAET, priority 2019, published 2022)", "key": {"[1]": {"test_system": "IMQ-induced psoriasis-like skin inflammation", "test": "Imiquimod (IMQ)-mediated psoriasis mouse model, topical treatment of ears", "format": "in vivo, C57BL/6 mice", "procedure": "Experiments were conducted in accordance with the German law guidelines of animal care. […] At day 7, mice were sacrificed and analysed. For IL-36α-mediated psoriasis induction, ears of male C57BL/6 mice (8-12 weeks old) were treated by intradermal injections using 1 μg murine IL-36α (aa 8-160, R&D) or PBS control for 5 consecutive days. […] Inhibitors were topically applicated 6 h before intradermal injections of IL-36α or PBS were applied. Mice were sacrificed and analysed at day 6.\nSample preparation was performed as described. The following anti-mouse antibodies from BioLegend were used: anti-CD45 FITC (103107), anti-CD11 b PacificBlue (101223), anti-Ly6G PE (127607), anti-F4/80 APC (123115), anti-CD11c Pacific Blue (117322), anti-MHC-II APC (107613), anti-CD172α PE (144011) and anti-Silec-H PE (129605). Anti-PDCA-1 APC (17-2092-80) and anti-αβTCR PE (HM3628) were purchased from Invitrogen, and anti-γδ-TCR APC (17-5711-82) from Sigma. Data was acquired on a LSRII flow cytometer (Becton Dickson).\nEar sections from mice were fixed in 10% formalin (Carl Roth) and subsequently embedded in paraffin. 5-μm sections were prepared and incubated with the following antibodies from Cell Signaling: pSTAT3 (9145), pRB (8516) and H3K27me3 (9733). For staining of human skin samples, EZH2 antibody (Cell Signaling, 5246) was used. Antigen retrieval was performed in 1 mM EDTA pH 8.0 for pSTAT3, and 10 mM citrate buffer pH 6.0+0.5% Triton X-100 for EZH2, H3K27me3 and pRB. After incubation with peroxidase-coupled secondary antibodies, sections were stained with DAB substrate."}, "[2]": {"test_system": "IL-36-mediated psoriasis-like dermatitis", "test": "IL-36α-triggered psoriasis-like dermatitis mouse model, topical treatment of ears", "format": "in vivo, C57BL/6 mice", "procedure": "Experiments were conducted in accordance with the German law guidelines of animal care. […] At day 7, mice were sacrificed and analysed. For IL-36α-mediated psoriasis induction, ears of male C57BL/6 mice (8-12 weeks old) were treated by intradermal injections using 1 μg murine IL-36α (aa 8-160, R&D) or PBS control for 5 consecutive days. […] Inhibitors were topically applicated 6 h before intradermal injections of IL-36α or PBS were applied. Mice were sacrificed and analysed at day 6. Ear sections from mice were fixed in 10% formalin (Carl Roth) and subsequently embedded in paraffin. 5-μm sections were prepared and incubated with the following antibodies from Cell Signaling: pSTAT3 (9145), pRB (8516) and H3K27me3 (9733). For staining of human skin samples, EZH2 antibody (Cell Signaling, 5246) was used. Antigen retrieval was performed in 1 mM EDTA pH 8.0 for pSTAT3, and 10 mM citrate buffer pH 6.0+0.5% Triton X-100 for EZH2, H3K27me3 and pRB. After incubation with peroxidase-coupled secondary antibodies, sections were stained with DAB substrate."}, "H3K27me3": {"test_system": "H3K27me3", "details": "cited from earlier work"}, "[3]": {"test_system": "non-Hodgkin's lymphoma / DLBCL cell lines", "details": "cited from earlier work; for effect on DLBCL cells with EZH2 (Y641) mutations: diffused large B cell lymphoma cells"}, "[4]": {"details": "experimental animals; cited from earlier work"}, "[5]": {"test_system": "B cell lymphoma xenografts", "details": "cited from earlier work"}, "SCLC cell lines": {"test_system": "SCLC cell lines", "details": "three SCLC cell lines; cited from earlier work"}, "[6]": {"test_system": "prostate cancer cell lines", "details": "in vitro; cited from earlier work"}, "cutaneous melanomas": {"test_system": "cutaneous melanomas", "details": "mice; cited from earlier work"}, "[7]": {"test_system": "wild-type and mutant EZH2", "details": "cited from earlier work"}, "[8]": {"details": "flow cytometry of ears at day 7"}}, "note": "“Also recorded” adds a separate entry of the source.", "data": [{"smiles": "CCS(=O)(=O)N1CCC([C@@H](C)n2c(C)c(C(=O)NCc3c(OC)cc(C)[nH]c3=O)c3ccccc32)CC1", "note": "[CPI-169]", "values": [{"measurement": "H3K27me3 expression in the epidermis (EZH2 inhibition)", "setting": "[1]; ear skin sections of treated mice", "result": "loss"}, {"measurement": "immune cell infiltration (neutrophils, macrophages, T cells)", "setting": "[1]; [8]", "result": "fully abrogated"}, {"measurement": "number of infiltrating plasmacytoid (pDC) and myeloid dendritic cells (mDC)", "setting": "[1]; [8]", "result": "significantly suppressed"}, {"measurement": "IκBζ expression, phosphorylation of EZH2 at T345 and of STAT3 at Y705 in the skin", "setting": "[1]; immunoblot of skin tissue at day 7", "result": "completely abrogated"}, {"measurement": "expression of IκBζ target genes (Cxcl2, Cxcl5) and cytokines (Il17a, Il23a) in skin", "setting": "[1]; qPCR of skin samples at day 7", "result": "significantly downregulated"}, {"measurement": "psoriasis-like skin inflammation (ear thickening, keratinocyte hyperproliferation, immune cell infiltration)", "setting": "[1]; topical daily for 6 days with IMQ, abemaciclib 0.02 mg, CPI-169 0.05 mg per ear/day, analysed day 7", "result": "completely suppressed; also recorded: completely suppressing"}, {"measurement": "IL-36-mediated expression of IκBζ, phosphorylation of EZH2 at T345 and activation of STAT3 (pSTAT3 Y705) in skin", "setting": "[2]; immunoblot of ear skin at day 6", "result": "suppressed"}, {"measurement": "keratinocyte hyperproliferation and immune cell infiltration", "setting": "[2]; intradermal IL-36α 5 days, topical inhibitor, abemaciclib 0.02 mg, CPI-169 0.05 mg, day 6", "result": "effectively blocked"}, {"measurement": "IκBζ target gene expression and key cytokine expression (Il17a, Il23a)", "setting": "[2]; qPCR of skin samples", "result": "effectively blocked"}, {"measurement": "cellular H3K27me3 / H3K27 methylation", "setting": "H3K27me3", "result": "decreases"}, {"measurement": "effect on non-Hodgkin's lymphoma (NHL) cell lines", "setting": "[3]; large panel of NHL cell lines", "result": "triggering cell cycle arrest and ultimately resulting in apoptosis"}]}, {"smiles": "COc1cc(C)[nH]c(=O)c1CNC(=O)c1c(C)n([C@H](C)C2CCN(CC(F)(F)F)CC2)c2ccccc12", "note": "[CPI-1205]", "values": [{"measurement": "tolerability", "setting": "[4]", "result": "well-tolerated"}]}, {"smiles": "CCc1c(N(CC)C2CCOCC2)cc2oc(C3CCN(C(C)C)CC3)cc2c1C(=O)NCc1c(C)cc(C)[nH]c1=O", "note": "[EBI-2511]", "values": [{"measurement": "efficacy in Pfeiffer tumor Xenograft models", "setting": "[5]; mouse", "result": "high in vivo efficacy"}]}, {"smiles": "CCC(CC)n1ccc2c(C(=O)NCc3c(C)cc(C)[nH]c3=O)cc(C#N)cc21", "note": "[EI1]", "values": [{"measurement": "cellular H3K27me3 / H3K27 methylation", "setting": "H3K27me3", "result": "blocks"}, {"measurement": "effect on DLBCL cells with EZH2 (Y641) mutations", "setting": "[3]", "result": "decreased proliferation, cell cycle arrest, and apoptosis"}]}, {"smiles": "CCN(c1cc(C#CCN2CCOCC2)cc(C(=O)NCc2c(C)cc(C)[nH]c2=O)c1C)[C@H]1CC[C@H](N(C)CCOC)CC1", "note": "[EPZ011989]", "values": [{"measurement": "tumor growth, xenograft model of human B cell lymphoma", "setting": "[5]; mouse", "result": "significant tumor growth inhibition"}]}, {"smiles": "CC[C@H](C)n1cc(C)c2c(C(=O)NCc3c(C)cc(C)[nH]c3=O)cc(-c3ccc(N4CCNCC4)nc3)cc21", "note": "[GSK126]", "values": [{"measurement": "effect on DLBCL cells with EZH2 (Y641) mutations", "setting": "[3]", "result": "effectively inhibits proliferation"}, {"measurement": "growth of SCLC cell lines", "setting": "SCLC cell lines", "result": "induces growth inhibition"}, {"measurement": "growth of EZH2 mutant DLBCL xenografts", "setting": "[5]; mice", "result": "effectively inhibits"}]}, {"smiles": "CCCc1cc(C)[nH]c(=O)c1CNC(=O)c1cc(-c2ccnc(N3CCN(C)CC3)c2)cc2c1cnn2C(C)C", "note": "[GSK343]", "values": [{"measurement": "H3K27me3 levels", "setting": "H3K27me3; breast cancer cells in vitro", "result": "decrease"}, {"measurement": "proliferation of prostate cancer cell lines", "setting": "[6]", "result": "inhibits proliferation"}]}, {"smiles": "Cc1cc(C)c(CNC(=O)c2cc(-c3ccc(N4CCN(C)CC4)nc3)cc3c2c(C)cn3C(C)C)c(=O)[nH]1", "note": "[GSK503]", "values": [{"measurement": "growth and metastasis of cutaneous melanomas", "setting": "cutaneous melanomas", "result": "inhibits growth and metastasis"}]}, {"smiles": "Cc1cc(C)c(CN2CCc3c(Cl)cc(-c4c(C)noc4C)c(Cl)c3C2=O)c(=O)[nH]1", "note": "[PF-06726304]", "values": [{"measurement": "efficacy in diffuse large B-cell lymphoma Karpas-422 tumor model", "setting": "[5]; mouse, in vivo", "result": "good efficacy"}]}, {"smiles": "CCCc1cc(C)[nH]c(=O)c1CNC(=O)c1cc(-c2ccc(N3CCN(C(C)C)CC3)nc2)cc2c1cnn2C(C)C", "note": "[UNC1999]", "values": [{"measurement": "difference in potency, wild-type vs mutant Y641N EZH2 methyltransferase activity", "setting": "[7]", "result": "< 5", "unit": "fold"}, {"measurement": "effect on DLBCL cells with EZH2 (Y641) mutations", "setting": "[3]", "result": "selectively killed"}]}]}
